Series [1] deals with T1, Y4R (Homo sapiens, UniProt P50391). The conditions noted are these: cited from earlier work.
Series [2] concerns the target T2, Y4R^SwBac displaying BBVs (Homo sapiens, UniProt P50391).
T2 construct: made in house; host or cells: Sf9 insect cells (budded baculovirus particles; MultiBac, with or without the SweetBac module)
As to the kind of experiment: Fluorescence anisotropy Y4R competition binding with 16 (Y4R^SwBac BBVs). Conditions: DPBS, 16 (0.5 nM) as labeled probe, read-out: pKi FA, 137 mM Na+ (converted). A general note: Fluorescence polarisation rises when a labelled molecule tumbles more slowly, as on binding a larger partner.
Description: Two types of MultiBac baculoviruses were used: one type encodes only for hY4R resulting in BBVs displaying Y4R devoid of a mammalian-like glycosylation (herein termed Y4R^nonglyco) and the second type additionally encodes for enzymes providing a mammalian-like glycosylation in Sf9 cells (herein termed Y4R^SwBac; see also Section Molecular Cloning). The obtained viruses were collected by centrifugation at 1600g for 10 min, and the virus titer was determined with an image-based cell-size estimation assay as described elsewhere.[64] […]
FA measurements were carried out using a Synergy NEO multimode plate reader (BioTek, Winooski, VT) and black, half-area, flat-bottom polystyrene NBS (nonbinding surface) 96-well plates (Corning, Corning, NY, product no. 3993). Polarizing excitation (530 ± 15 nm) and dual emission (590 ± 17.5 nm) filters with a dichroic mirror were used, allowing the simultaneous detection of parallelly and perpendicularly polarized fluorescence emission. […]
FA signals were measured for 1.5 h.
Data processing for FA binding assays was assisted by the software Aparecium 2.0.20 developed in house (http://www.gpcr.ut.ee/software.html). Prior to the calculation of FA using eq 1,[19] the measured parallel [I∥(t)] and perpendicular [I⊥(t)] fluorescence intensities were blank-corrected on the basis of the values obtained from wells containing BBVs but no receptor ligand. […]

The target in series [3] is T3, hY1R (Homo sapiens, UniProt P25929).
T3 construct: host or cells: SK-N-MC neuroblastoma cells
T3 sequence (P25929 1-384): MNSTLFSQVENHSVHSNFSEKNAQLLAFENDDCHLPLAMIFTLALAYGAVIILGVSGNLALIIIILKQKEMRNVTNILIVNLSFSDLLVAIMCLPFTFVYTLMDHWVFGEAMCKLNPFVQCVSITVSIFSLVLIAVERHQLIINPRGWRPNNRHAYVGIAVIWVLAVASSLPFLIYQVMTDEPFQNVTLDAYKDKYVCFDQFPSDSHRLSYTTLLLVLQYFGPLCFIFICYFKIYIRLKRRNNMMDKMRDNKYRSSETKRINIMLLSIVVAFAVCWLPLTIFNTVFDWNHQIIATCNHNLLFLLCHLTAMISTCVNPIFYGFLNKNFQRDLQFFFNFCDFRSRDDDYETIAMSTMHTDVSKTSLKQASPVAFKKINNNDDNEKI
Conditions: cited from earlier work.

Series [4] deals with T4, hY2R (Homo sapiens, UniProt P49146).
T4 construct: host or cells: CHO
T4 sequence (P49146 1-381): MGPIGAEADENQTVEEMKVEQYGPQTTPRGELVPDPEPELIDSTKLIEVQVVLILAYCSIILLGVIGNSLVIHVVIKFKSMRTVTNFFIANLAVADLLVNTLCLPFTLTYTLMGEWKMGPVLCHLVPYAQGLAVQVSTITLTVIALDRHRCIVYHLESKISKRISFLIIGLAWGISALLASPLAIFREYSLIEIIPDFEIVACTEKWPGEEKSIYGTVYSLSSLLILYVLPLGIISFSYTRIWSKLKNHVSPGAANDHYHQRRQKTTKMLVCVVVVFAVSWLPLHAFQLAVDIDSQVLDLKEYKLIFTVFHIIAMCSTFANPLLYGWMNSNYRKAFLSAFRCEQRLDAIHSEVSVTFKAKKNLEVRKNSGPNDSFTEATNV
Conditions: cited from earlier work.

The target in series [5] is T5, hY5R (Homo sapiens, UniProt Q15761).
T5 construct: expressed in transfected cells; host or cells: HEC-1B (human endometrial cancer)
T5 sequence (Q15761 1-445): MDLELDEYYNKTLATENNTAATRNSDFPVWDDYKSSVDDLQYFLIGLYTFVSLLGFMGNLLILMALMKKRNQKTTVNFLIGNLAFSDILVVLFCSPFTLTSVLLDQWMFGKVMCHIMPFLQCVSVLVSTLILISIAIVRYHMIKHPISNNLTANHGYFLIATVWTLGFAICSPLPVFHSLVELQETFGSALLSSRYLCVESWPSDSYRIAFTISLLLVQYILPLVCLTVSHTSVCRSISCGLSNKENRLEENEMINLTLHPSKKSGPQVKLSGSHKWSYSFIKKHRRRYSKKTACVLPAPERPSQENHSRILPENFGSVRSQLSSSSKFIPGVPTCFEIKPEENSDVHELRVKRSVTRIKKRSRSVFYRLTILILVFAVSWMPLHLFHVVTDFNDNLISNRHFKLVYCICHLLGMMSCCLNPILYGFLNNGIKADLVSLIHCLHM
Conditions: cited from earlier work.

The target of series [6] is hY4R-Nluc(intraECL2) (Homo sapiens, UniProt P50391, INS195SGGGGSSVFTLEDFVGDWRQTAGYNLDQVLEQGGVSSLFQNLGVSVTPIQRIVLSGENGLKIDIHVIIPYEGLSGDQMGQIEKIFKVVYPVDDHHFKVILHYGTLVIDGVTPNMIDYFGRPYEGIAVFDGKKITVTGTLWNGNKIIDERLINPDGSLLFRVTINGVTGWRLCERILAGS). As to the kind of experiment: NanoBRET Y4R competition binding with 16. On the technique in general: BRET reads energy transfer from a luciferase to a nearby fluorophore.
Description: One the day prior to the experiment, HEK293T-hY4R-Nluc(intraECL2) cells were detached from the culture flask by trypsinization, centrifuged (500g, 5 min), and resuspended in FBS-free L15-HEPES. The cell density was adjusted to 1.14 × 10^6 cells/mL, and the cells were seeded into white 96-well plates (Brand, Wertheim, Germany) (70 μL, 80,000 cells per well) and incubated overnight in a water-saturated atmosphere (only atmospheric CO2). […] The final BSA concentration in the assay was 1.5% (30 μL of a solution containing 5% BSA added to 70 μL of BSA-free medium, as outlined below).
All BRET measurements were performed at a temperature of 25 °C using a TECAN Infinite Lumi plate reader (Tecan, Crailsheim, Germany) equipped with an injection module. Bioluminescence of the nanoluciferase was detected using a 460/35 nm band-pass (460/35 BP) filter. The emission of the fluorescent ligands was detected through a 610 nm long-pass (610 LP) filter. […]
Total binding data from competition binding experiments were plotted as corrected BRET ratio over log(competitor concentration, M) and analyzed by a four-parameter logistic equation (log(inhibitor) vs response–variable slope, GraphPad Prism 5) to obtain the TOP value (upper curve plateau), which was used for data normalization (100% = TOP value, 0% = average of the corrected BRET ratio obtained from unspecific binding). […]

Series [7] deals with T1, Y4R. As to the kind of experiment: Y4R miniGsi recruitment assay (HEK293T-NlucN-mGsi/Y4R-NlucC cells). As to miniGsi recruitment Emax ± SEM: relative to 1 µM hPP (100%). It counts as cell-based. Details: expressed in transfected cells; host or cells: HEK293T. The conditions noted are these: for EC50: HEK293T-NlucN-mGsi/Y4R-NlucC cells; for Emax: read-out: miniGsi recruitment Emax ± SEM. Here is the method: Furimazine was used as nanoluciferase substrate. The original stock was diluted 1:1000 in L15-HEPES to obtain the feed solution for the assay. Data analysis was performed based on the areas under the curves (time window: 45 min starting with the agonist addition) using GraphPad Prism 5. […] Efficacies Emax correspond to the upper plateaus of the normalized concentration–response curves.

For series [8], the target named is T6, hY4R (Homo sapiens, UniProt P50391). As to the kind of experiment: Flow cytometric Y4R competition binding with 16 as labeled ligand. Details: expressed in transfected cells; host or cells: CHO (co-expressing Gqi5 and mitochondrially targeted aequorin). The conditions noted are these: intact CHO-hY4R-Gqi5-mtAEQ cells. The protocol: The latter was used for injection of the samples of saturation and competition binding experiments. At least three individual experiments were performed in duplicate (kinetic experiments) or triplicate (saturation and competition binding). […] Measurements were stopped after counting of 2000–10000 gated events.
2 to 3 days prior to the experiment, cells were seeded in T75 or T175 culture flasks. On the day of the experiment, cells were detached by trypsinization, suspended in culture medium, and centrifuged. […] HCl (nonlabeled ligands, saturation, and kinetic experiments).

The target in series [9] is T6, hY4R. Details: expressed in transfected cells; host or cells: CHO (co-expressing Gqi5 and mitochondrially targeted aequorin). The conditions noted are these: cited from earlier work.
Series [10] concerns the target T3, hY1R. As to the kind of experiment: Y1R radioligand competition binding, whole SK-N-MC cells, [3H]UR-MK299. Conditions: SK-N-MC neuroblastoma cells, [3H]UR-MK299 c = […]. The protocol:
(§1) All radioligand binding assays were performed at intact Y receptor expressing cells at 23 ± 2 °C.
Competition binding assays at Y1R-expressing SK-N-MC neuroblastoma cells were performed as previously described using [^3H]UR-MK299 as radioligand (concentration: 0.15 nM).[33] […] (logarithmic form in the case of pKi values).
In general terms: Displacement assays read how much labelled ligand stays bound in the presence of the test substance.

Series [11] deals with T4, hY2R. As to the kind of experiment: Y2R radioligand competition binding, whole CHO-hY2R cells, [3H]propionyl-pNPY. Conditions: read-out: pKi ± SEM hY2R (converted). The protocol:
as §1

Series [12] has as its target T5, hY5R. As to the kind of experiment: Y5R radioligand competition binding, whole HEC-1B-hY5R cells, [3H]propionyl-pNPY. The conditions noted are these: [3H]propionyl-pNPY c = 5 nM. The protocol: as §1
(logarithmic form in the case of pKi values).

Series [13] is described as follows: Chemical stability in PBS pH 7.4. It counts as physicochemical. The conditions noted are these: PBS pH 7.4, room temperature, 48 h, 100 μM. The protocol: The chemical stability of the fluorescent ligands 16, 17, and 18 was investigated in PBS (adjusted to pH 7.4) at 22 °C. […] After time periods of 0, 6, and 48 h, an aliquot (25 μL) was withdrawn and added to 25 μL of acetonitrile/0.04% aq. TFA 1:9 v/v to obtain a peptide solution with a concentration of 50 μM. 20 μL of this solution were subjected to analytical RP-HPLC analysis using the same system and conditions as described under Analytical HPLC, but applying a different linear gradient: 0–14 min: A/B 90:10–45:55, 14–15 min: 45:55–5:95, 15–19 min: 5:95 (isocratic). A 1:1 mixture of PBS and acetonitrile/0.04% aq. TFA 1:9 v/v (20 μL) was analyzed to obtain the blank chromatogram.

Series [14] concerns the target T6, hY4R. As to the kind of experiment: Y4R cAMP CAMYEN assay (HEK293T-CAMYEN-hY4R cells). Also: relative to 1 µM hPP (100%). The series is classed as cell-based. On the set-up: expressed in transfected cells. The conditions noted are these: read-out: CAMYEN cAMP Emax ± SEM. The protocol:
The assay was performed with live HEK293T-CAMYEN-hY4R cells applying a reported protocol.[31] Experiments were performed in triplicate. Data processing was performed with GraphPad Prism 9.0 as previously described.[31]

The target in series [15] is T6, hY4R. As to the kind of experiment: Y4R Ca2+ aequorin assay (CHO-hY4R-Gqi5-mtAEQ cells). The series is classed as cell-based. Details: expressed in transfected cells; host or cells: CHO (co-expressing Gqi5 and mitochondrially targeted aequorin). The conditions noted are these: read-out: Ca2+-aequorin Emax ± SEM. The protocol: The assay was performed with live CHO-hY4R-Gqi5-mtAEQ cells as previously described (used buffer: buffer III). Measurements were carried out on a Tecan Infinite Lumi plate reader. Data analysis was performed as reported using GraphPad Prism 5 for the calculation of the area under the curve. […] Efficacies Emax correspond to the upper plateaus of the normalized concentration–response curves.

Series [16] deals with T1, Y4R. Conditions: cited from earlier work. This is another data set of the same source.
Where [17] appears, read: DPBS, 16 (1 nM) as labeled probe, read-out: pKi flow cytometry, 137 mM Na+ (converted).
The mark [18] stands for this setting: buffer I, 16 (0.5 nM) as labeled probe, read-out: pKi flow cytometry, Na+ free (converted).
[19] abbreviates: read-out: pKi ± SEM hY1R (converted).
Where [20] appears, read: read-out: pKi ± SEM hY5R (converted).

Read-outs that look alike come from different tables or passages of the source. Marks after values point to notes of the source that are not given here.

The source of these data is publication PMC11019746 (ACS Pharmacology & Translational Science, 2024).

In general, Kd refers to the concentration at which binding is half-saturated. For “5-TAMRA-[K18,Nle17,30]hPP (2) (from UniProt P01298)”, the dissociation constant Kd in series [1] is 26 nM.
As usually defined, the Emax is the greatest response seen or fitted, relative to the assay's reference. For `CC(C)C[C@H](NC(=O)[C@@H]1CCCNC(N)=NC(=O)NCCCCNC(=O)CCC(=O)N[C@@H](CCCNC(=N)N)C(=O)N[C@@H](Cc2c[nH]c3ccccc23)C(=O)N1)C(=O)N[C@@H](CCCNC(=N)N)C(=O)N[C@@H](Cc1ccc(O)cc1)C(N)=O` [Compound 5], the Ki was 0.55 nM in [2]; over 10000 nM in series [3]; over 10000 nM in series [4]; over 3000 nM in series [5]; 1.29 nM in [6]; 0.708 nM in series [8] (setting [17]). The Ki in [8] (setting [18]) was 0.324 nM. For the same compound, in [3], the “pKi hY1R” value is reported as under 5. Also, the “pKi hY2R” value in series [4] is listed as under 5. In addition, in series [5], the “pKi hY5R” value is under 5.5. The EC50 in series [7] (read-out: miniGsi recruitment EC50 (converted)) was 1.8 nM. Further, the maximum response (Emax) in [7] was 61 ± 2%.
`CCC(=O)NCCCC(=O)N[C@@H]1CC(=O)N[C@@H](CCCNC(=N)N)C(=O)N[C@@H](Cc2ccc(O)cc2)C(=O)N[C@H](C(=O)N[C@@H](CC(C)C)C(=O)N[C@@H](CCCNC(=N)N)C(=O)N[C@@H](Cc2ccc(O)cc2)C(N)=O)CCCNC(N)=NC(=O)NCCCCNC1=O` [Compound 7]: the Ki in [2] was 0.398 nM; in series [6] it was 0.851 nM; in series [8] (setting [17]) it was 1.58 nM; in [8] (setting [18]), 0.245 nM. For the same compound, the “pKi literature, 137 mM Na+” value in series [9] is listed as 9.79 ^e.
For `CC(C)C[C@H](NC(=O)[C@@H]1CCCNC(N)=NC(=O)NCCCCNC(=O)[C@H](NC(=O)CCCNC(=O)CCC#Cc2ccc3c(c2)C(C)(C)C2=C4C=C5C6=[N+](CCC5OC4CCN23)c2ccc(S(=O)(=O)[O-])cc2C6(C)C)CC(=O)N[C@@H](CCCNC(=N)N)C(=O)N[C@@H](Cc2ccc(O)cc2)C(=O)N1)C(=O)N[C@@H](CCCNC(=N)N)C(=O)N[C@@H](Cc1ccc(O)cc1)C(N)=O` (stereo partly drawn) [Compound 16], the Ki in series [10] (read-out: Ki hY1R (converted)) was 120 nM; in series [10] (setting [19]), 123 nM; in [11], over 1000 nM; in [12] (read-out: Ki hY5R (converted)), 480 nM; in series [12] (setting [20]) it was 479 nM. Besides, the chemical stability entry in series [13] is given as “excellent stability”. Further, the maximal effect (Emax) in series [14] was 93 ± 5%; in series [7], 72 ± 9%; in series [15] it was 66 ± 2%.
Regarding `CC(C)C[C@H](NC(=O)[C@@H]1CCCNC(N)=NC(=O)NCCCCNC(=O)[C@H](NC(=O)CCCNC(=O)CCCCCN2/C(=C/C=C/C=C/C3=[N+](CCCCS(=O)(=O)[O-])c4ccccc4C3(C)C)C(C)(C)c3cc(S(=O)(=O)O)ccc32)CC(=O)N[C@@H](CCCNC(=N)N)C(=O)N[C@@H](Cc2ccc(O)cc2)C(=O)N1)C(=O)N[C@@H](CCCNC(=N)N)C(=O)N[C@@H](Cc1ccc(O)cc1)C(N)=O` [Compound 17], the Ki in series [10] (setting [19]), in series [11] and in series [12] (setting [20]) was over 1000 nM each time. Moreover, the chemical stability entry in series [13] is recorded as “excellent stability”. For the same compound, the figures for the Emax in [14], in series [7] and in series [15] were 90 ± 3%, 70 ± 9% and 71 ± 3%, respectively. For the same compound, the EC50 in [7] (read-out: miniGsi recruitment pEC50 ± SEM (converted)) is 85.1 nM.
As for Sulfo-Cy5-[K4]hPP (from UniProt P01298), the Kd in series [16] was 5.6 nM.
